According to US6403652B1, “Method and composition” (Colgate-Palmolive Company, priority 2000, dated 2002):
Converted amounts (≈) assume the structure as drawn. Like-named read-outs stand apart in the source and are kept apart here. Blank lines part the entries; values can stand above or below the compound they belong to.

Key:
Format in all cases: cell-based
Staphylococcus Aureus = assay: MIC by Broth Dilution Method against Staphylococcus Aureus; conditions: 37° C., visible growth
Method: Antimicrobial activity of several compounds was measured by determining the minimum inhibitory concentration (MIC). MIC is defined as the lowest concentration of an antimicrobial agent that will inhibit the growth of a microorganism and is usually expressed as ppm (μg/mL). MIC was determined by the Broth Dilution Method. To determine MIC a series of culture tubes was prepared, each tube containing the growth medium (Broth) with a decreasing concentration of the antimicrobial agent. The tubes were then inoculated with the test organism and incubated at 37° C. After incubation, tubes were visually examined for growth as indicated by turbidity. The lowest concentration that prevented visible growth is the MIC.

[1] = tested on: Staphylococcus Aureus isolate SA100 (resistant to methicillin only); assay: MIC in multiwell plate broth dilution, isolate SA100
Method: (§1) 1. The following Staphylococcus Aureus isolates were tested:
(§2) 2. 2-t-butyl-5-(4-t-butylphenyl)-phenol (DTBBP) was dissolved in ethanol to a concentration of 1000 μg/mL. Higher concentrations could not be tested due to the formation of precipitate in the broth when higher concentrations were attempted.
(§3) 3. 100 μl of the 32 μg/ml solution added to column 12 of the multiwell plates, 50 μl M—H broth to each of the other columns. 50 μl removed from 12 to 11 for 1:1 dilution, continued to column 2. 50 μl removed from column 2 and discarded. Column 1 contained no drug. To control for the amount of ethanol added to each well, additional wells were set up as described above without DTBBP but with the same amount of ethanol as the test wells.
(§4) 4. 50 μl bacteria added to each well going from column 1 to column 12. All isolates run in duplicate with and without DTBBP.
(§5) 5. Addition of 50 μl bacteria to 50 μl drug dilutes both 1:1 for a final bacterial density of 5×10^5/ml and drug concentrations of:
(§6) 6. Incubated overnight at 37° C.

[2] = tested on: Staphylococcus Aureus isolate SA124 (susceptible); assay: MIC in multiwell plate broth dilution, isolate SA124
Method: as §1, §2, §3, §4, §5, §6

[3] = tested on: Staphylococcus Aureus isolate SA15 (susceptible); assay: MIC in multiwell plate broth dilution, isolate SA15
Method: as §1, §2, §3, §4, §5, §6

[4] = tested on: Staphylococcus Aureus isolate SA6 (susceptible to all drugs); assay: MIC in multiwell plate broth dilution, isolate SA6
Method: as §1, §2, §3, §4, §5, §6

[5] = MIC in multiwell plate broth dilution, isolate SA22; conditions: Staphylococcus aureus
Method: as §1, §2, §3, §4, §5, §6

[6] = tested on: Staphylococcus Aureus isolate SA76 (resistant to methicillin, azithromycin, clarithromycin, erythromycin, ciprofloxacin); assay: MIC in multiwell plate broth dilution, isolate SA76
Method: as §1, §2, §3, §4, §5, §6

MIC (Staphylococcus Aureus): < 10 µg/mL
SMILES: CC(C)(C)c1cc(C2CCCCC2)ccc1O [2-t-butyl-4-cyclohexylphenol]

SMILES: CCCCCCCCc1ccc(O)c(C(C)(C)C)c1 [2-t-butyl-4-n-octylphenol]
MIC (Staphylococcus Aureus): < 10 µg/mL

MIC (Staphylococcus Aureus): < 10 µg/mL
SMILES: CC(C)(C)c1ccc(C2CCC(C(C)(C)C)CC2)cc1O (stereo not shown) [2-t-butyl-5-(4-t-butylcyclohexyl)-phenol]

MIC ([1]; isolate SA100, 24 hr, read-out: DTBBP MIC (24 hr)): 4 µg/mL (≈ 14.2 µM) | MIC ([1]; isolate SA100, 48 hr, read-out: DTBBP MIC (48 hr)): 4 µg/mL (≈ 14.2 µM) | MIC ([2]; isolate SA124, 24 hr, read-out: DTBBP MIC (24 hr)): 2 µg/mL (≈ 7.08 µM) | MIC ([2]; isolate SA124, 48 hr, read-out: DTBBP MIC (48 hr)): 4 µg/mL (≈ 14.2 µM) | MIC ([3]; isolate SA15, 24 hr, read-out: DTBBP MIC (24 hr)): 2 µg/mL (≈ 7.08 µM) | MIC ([3]; isolate SA15, 48 hr, read-out: DTBBP MIC (48 hr)): 4 µg/mL (≈ 14.2 µM) | MIC ([4]; isolate SA6, 24 hr, read-out: DTBBP MIC (24 hr)): 2 µg/mL (≈ 7.08 µM) | MIC ([4]; isolate SA6, 48 hr, read-out: DTBBP MIC (48 hr)): 4 µg/mL (≈ 14.2 µM) | MIC ([5]; isolate SA22, 24 hr, read-out: DTBBP MIC (24 hr)): 2 µg/mL (≈ 7.08 µM) | MIC ([5]; isolate SA22, 48 hr, read-out: DTBBP MIC (48 hr)): 2 µg/mL (≈ 7.08 µM) | MIC ([6]; isolate SA76, 24 hr, read-out: DTBBP MIC (24 hr)): 2 µg/mL (≈ 7.08 µM) | MIC ([6]; isolate SA76, 48 hr, read-out: DTBBP MIC (48 hr)): 4 µg/mL (≈ 14.2 µM) | MIC (Staphylococcus Aureus): < 1 µg/mL
SMILES: CC(C)(C)c1ccc(-c2ccc(C(C)(C)C)c(O)c2)cc1 [DTBBP, 2-t-butyl-5-(4-t-butylphenyl)-phenol]
